Reference: the supplement of paper PMC11208160

Assay: recombinant barcode read abundance after kanamycin selection (control-corrected) (log10(CPM+1)); higher = more efficient recombination; sequences stand for … in AGTGCAGAGAAAATCGGCCAGTTTTCTCTGCCTGCAGTCCGCATGCCGT…AGATTTATGCAGCGGACTGCCTTTCTCCCAAAGTGATAAACCGGACAGTATCATGGACCGGTTTTCCCGGTAATCCGTATTTGCAAGGTTGGTTTCACT; site = the 11-nt target
How it was run: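 Each value is log10(CPM+1). It describes recombination efficiency, taken as averaged, control-corrected counts per million of barcodes at recombinant junctions. The pooled E. coli library paired targets with IS621 bridge RNA target-binding loops, was co-electroporated with a donor plasmid, and was plated twice on chloramphenicol/ampicillin LB agar (control) and twice on chloramphenicol/ampicillin/kanamycin containing 0.1 mM IPTG.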
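Also: IS621 recombinase and bridge RNA in Escherichia coli cells.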

Sequence	recombinant barcode read abundance (log10)
CTATGGACTTGGGTTCTAACCTGTTGCAA (site CTATGGACTTT)	1.39
CTATGGACTTGGGTTCTAACCTGTTGCAT (site CTATGGACTAT)	0.348
CTATGGACTTGGGTTCTAACCTGTTGCAT (site CTATGGACTCT)	0.614
CTATGGACTTGGGTTCTAACCTGTTGCAT (site CTATGGACTGT)	0.217
CTATGGACTTGGGTTCTAACCTGTTGCAT (site CTATGGACTTT)	0.0336
CTATGTCCTTGGGTTCTAACCTGTTGCGT (site CTATGTCCTAC)	1.44
CTATGTCCTTGGGTTCTAACCTGTTGCGT (site GGATGTCCTAC)	0.228
CTATGTGCTTGGGTTCTAACCTGTTGCAT (site CTATGTGCTAA)	0.295
CTATGTGCTTGGGTTCTAACCTGTTGCAT (site CTATGTGCTAC)	0.168
CTATGTGCTTGGGTTCTAACCTGTTGCAT (site CTATGTGCTAG)	0.0201
CTATGTGCTTGGGTTCTAACCTGTTGCAT (site CTATGTGCTAT)	0.109
CTATTCACTTGGGTTCTAACCTGTTGCCT (site CTATTCACTAG)	1.34
CTATTCACTTGGGTTCTAACCTGTTGCCT (site CTATTCCCTAG)	0.0733
CTATTCACTTGGGTTCTAACCTGTTGCCT (site CTATTCGCTAG)	0.0529
CTATTCACTTGGGTTCTAACCTGTTGCCT (site CTATTCTCTAG)	0.091
CTATTCTCTTGGGTTCTAACCTGTTGCTA (site CTATACTCTTG)	0.115
CTATTCTCTTGGGTTCTAACCTGTTGCTA (site CTATTCTCTTA)	1.62
CTATTGTCTTGGGTTCTAACCTGTTGCGT (site CTATTGTCTAC)	2.78
CTATTGTCTTGGGTTCTAACCTGTTGCGT (site CTATTGTCTCC)	0.019
CTATTGTCTTGGGTTCTAACCTGTTGCGT (site CTATTGTCTGC)	0.475
CTATTGTCTTGGGTTCTAACCTGTTGCGT (site CTATTGTCTTC)	0.0685
CTATTTACTTGGGTTCTAACCTGTTGCGG (site CTATTTACTCC)	0.781
CTATTTACTTGGGTTCTAACCTGTTGCGG (site TGTCGGCCTAA)	0.0533
CTATTTCCTTGGGTTCTAACCTGTTGCCT (site CGGTTTCCTAG)	0.032
CTATTTCCTTGGGTTCTAACCTGTTGCCT (site CTATTTCCTAG)	0.284
CTCAAACCTTGGGTTCTAACCTGTTGCTT (site CTCAAACCTAA)	0.355

Sequence	recombinant barcode read abundance (log10)
CTCAAACCTTGGGTTCTAACCTGTTGCTT (site CTCACACCTAA)	0.15
CTCAAGACTTGGGTTCTAACCTGTTGCGG (site CTCAAGACTCC)	2.5
CTCAAGACTTGGGTTCTAACCTGTTGCGG (site CTCTAGACTCA)	0.219
CTCACACCTTGGGTTCTAACCTGTTGCAG (site CTCACACCTCT)	0.968
CTCACACCTTGGGTTCTAACCTGTTGCAG (site TGTCATGCTAC)	0.331
CTCACGCCTTGGGTTCTAACCTGTTGCTT (site CACACGCCTAG)	0.228
CTCACGCCTTGGGTTCTAACCTGTTGCTT (site CTCACGCCTAA)	0.237
CTCAGGTCTTGGGTTCTAACCTGTTGCCA (site CTCAGGTCTAG)	0.18
CTCAGGTCTTGGGTTCTAACCTGTTGCCA (site CTCAGGTCTTG)	0.193
CTCATTCCTTGGGTTCTAACCTGTTGCAT (site CTCATTCCTAA)	0.0718
CTCATTCCTTGGGTTCTAACCTGTTGCAT (site CTCATTCCTAC)	0.0351
CTCATTCCTTGGGTTCTAACCTGTTGCAT (site CTCATTCCTAG)	0.112
CTCATTCCTTGGGTTCTAACCTGTTGCAT (site CTCATTCCTAT)	0.523
CTCATTCCTTGGGTTCTAACCTGTTGCTT (site CTCATTCCTAA)	0.211
CTCATTCCTTGGGTTCTAACCTGTTGCTT (site CTCATTCCTAC)	0.482
CTCATTCCTTGGGTTCTAACCTGTTGCTT (site CTCATTCCTAG)	0.0511
CTCATTCCTTGGGTTCTAACCTGTTGCTT (site CTCATTCCTAT)	0.0615
CTCCATCCTTGGGTTCTAACCTGTTGCCT (site CTCCATACTAG)	0
CTCCATCCTTGGGTTCTAACCTGTTGCCT (site CTCCATCCTAG)	0.898
CTCCATCCTTGGGTTCTAACCTGTTGCCT (site CTCCATGCTAG)	0.0326
CTCCATCCTTGGGTTCTAACCTGTTGCCT (site CTCCATTCTAG)	0.0176
CTCCATGCTTGGGTTCTAACCTGTTGCCT (site CTCCATACTAG)	0.325
CTCCATGCTTGGGTTCTAACCTGTTGCCT (site CTCCATCCTAG)	0.312
CTCCATGCTTGGGTTCTAACCTGTTGCCT (site CTCCATGCTAG)	1.19
CTCCATGCTTGGGTTCTAACCTGTTGCCT (site CTCCATTCTAG)	0.0894
CTCCATTCTTGGGTTCTAACCTGTTGCCT (site CTCCATACTAG)	0.0751

Sequence	recombinant barcode read abundance (log10)
CTCCATTCTTGGGTTCTAACCTGTTGCCT (site CTCCATCCTAG)	0.314
CTCCATTCTTGGGTTCTAACCTGTTGCCT (site CTCCATGCTAG)	0.129
CTCCATTCTTGGGTTCTAACCTGTTGCCT (site CTCCATTCTAG)	0.739
CTCCCGACTTGGGTTCTAACCTGTTGCGC (site AGAGTAGCTTA)	0.119
CTCCCGACTTGGGTTCTAACCTGTTGCGC (site CTCCCGACTGC)	2.08
CTCCCTGCTTGGGTTCTAACCTGTTGCCT (site CTCCCTGCTAG)	1.1
CTCCCTGCTTGGGTTCTAACCTGTTGCCT (site GAGGTCCCTCC)	0.0158
CTCCGCCCTTGGGTTCTAACCTGTTGCTT (site CTCCGACCTAA)	0.121
CTCCGCCCTTGGGTTCTAACCTGTTGCTT (site CTCCGCCCTAA)	0.578
CTCCGCCCTTGGGTTCTAACCTGTTGCTT (site CTCCGGCCTAA)	0.106
CTCCGCCCTTGGGTTCTAACCTGTTGCTT (site CTCCGTCCTAA)	0.0629
CTCCGCTCTTGGGTTCTAACCTGTTGCCT (site ATCCGCTCTAG)	0.211
CTCCGCTCTTGGGTTCTAACCTGTTGCCT (site CTCCGCTCTAG)	2.28
CTCCGCTCTTGGGTTCTAACCTGTTGCCT (site GTCCGCTCTAG)	0.0686
CTCCGCTCTTGGGTTCTAACCTGTTGCCT (site TTCCGCTCTAG)	0.113
CTCCGTCCTTGGGTTCTAACCTGTTGCGT (site CTCCGCCCTAG)	0.23
CTCCGTCCTTGGGTTCTAACCTGTTGCGT (site CTCCGTCCTAC)	2.54
CTCGAATCTTGGGTTCTAACCTGTTGCTT (site CTCGAATCTAA)	0.897
CTCGAATCTTGGGTTCTAACCTGTTGCTT (site GGGATCCCTCC)	0.101
CTCGACCCTTGGGTTCTAACCTGTTGCAT (site CTCGACCCTAT)	2.4
CTCGACCCTTGGGTTCTAACCTGTTGCAT (site GGGCCTGCTTG)	1.66
CTCGATTCTTGGGTTCTAACCTGTTGCAT (site CTCAATTCTAT)	0.355
CTCGATTCTTGGGTTCTAACCTGTTGCAT (site CTCCATTCTAT)	0.194
CTCGATTCTTGGGTTCTAACCTGTTGCAT (site CTCGATTCTAT)	1.66
CTCGATTCTTGGGTTCTAACCTGTTGCAT (site CTCTATTCTAT)	0.213
